Data set [1] can be described thus: ABTS radical cation scavenging activity (TAC assay). The class given is biochemical. Conditions: ethanol. The source says:
(§1) In an embodiment, the AntiOxCINs antioxidant ranking activity hierarchy was established by in vitro non-cell methods. The selected total antioxidant capacity (TAC) assays (DPPH, ABTS and GO) involved the spectrophotometric measurement of the radical absorbance decrease as a result of an in situ radical deactivation by an antioxidant. Compounds with higher antioxidant activity display lower IC50 values. […] This decrease was attenuated/ameliorated by the increment of the spacer length and/or the introduction of additional hydroxyl group in the aromatic ring.
(§2) The radical scavenging activity of AntiOxCINs was evaluated by means of total antioxidant capacity assays based on DPPH., ABTS.^+ and GO. radicals. All these methods involved the spectrophotometric measurement of the absorbance decrease resulting from radical (DPPH., ABTS.^+ or GO.) deactivation with an antioxidant. The results were expressed in IC50, which is defined as the minimum antioxidant concentration necessary to reduce the amount of radical by 50%. Antioxidant assays were performed in a multiplate reader (Powerwave XS Microplate Reader) of Bio-Tech instruments.
In an embodiment, the ABTS.^+ scavenging activity was evaluated as follows: ethanolic solutions of the test compounds with increasing concentrations (range between 10 μM and 500 μM) were prepared. ABTS.^+ radical cation solution was obtained by addition of 150 mM aqueous potassium persulfate solution (163 μL) to 10 mL of 7 mM aqueous ABTS solution followed by storage in the dark at room temperature for 16 h (2.45 mM final concentration). The solution was then diluted in ethanol to reach the absorbance of 0.72±0.02. After addition of the compound (20 μL), in triplicate, to ABTS.^+ solution (180 μL) the spectrophotometric measurement was carried out each minute over 15 minutes. […] Dose-response curves were established for the determination of IC50 values. Data are means±SEM of three independent experiments.

Data set [2] in a line: Lipophilic properties by electrochemistry at ITIES (transfer potential). The class given is physicochemical. The settings on record: aqueous phase to 1,6-dichlorohexane, DPV, C=0.32 mM. On the procedure:
In an embodiment, AntiOxCINs lipophilic properties were evaluated at physiological pH by electrochemistry. The used technique is often used to mimic the transfer of ionic drugs through biological membranes as the process occurs at the interface between two immiscible electrolyte solutions (ITIES). The transfer potential (Etr) at which the ionic drug, initially present in the aqueous phase (C=0.32 mM), is transferred to the 1,6-dichlorohexane (DCH) phase is measured by differential pulse voltammetry (DPV). In the ITIES model, the transfer potential (Etr) becomes less positive with the increasing of the drug lipophilic character.
(§3) In an embodiment, the electrochemical analytical data was obtained using a computer controlled potentiostat Autolab PGSTAT302N (Metrohm Autolab, Utrecht, Netherlands). Generally, cyclic voltammetry (CV) data was acquired at a scan rate of 50 mVs^−1. Differential pulse voltammetry (DPV) results were acquired at a step potential of 4 mV, pulse amplitude of 50 mV and scan rate of 8 mVs^−1. The electrochemical signals were monitored by the General Purpose Electrochemical System (GPES) version 4.9, software package. All electrochemical experiments were performed at room temperature in an electrochemical cell that was placed in a Faraday cage in order to minimize the contribution of background noise to the analytical signal.
(§4) In an embodiment, the process of evaluation of AntiOxCINs redox properties was conducted as follows: stock solutions of each compound (10 mM) were prepared by dissolving the appropriate amount in ethanol. The voltammetric working solutions were prepared in the electrochemical cell, at a final concentration of 0.1 mM. The […] supporting electrolyte was prepared by diluting […] to 100 mL. Voltammetric data was acquired in a three-electrode system consisting of a glassy carbon electrode (GCE, d=2 mm) as working electrode, a counter electrode of platinum wire and a saturated Ag/AgCl reference electrode. In an embodiment, the evaluation of AntiOxCINs lipophilic properties was performed as follows: the electrochemical cell was a four-electrode system with arrays of micro liquid-liquid interfaces (μlTIES) containing two Ag/AgCl reference electrodes and two counter electrodes of Pt, one in each phase. The microporous membrane was sealed with a fluorosilicone sealant (Dow Corning 730) onto a glass cylinder which was filled with 4.0 mL of the aqueous phase, where the aliquots of AntiOxCINs solutions were added. The membrane was then immersed into the organic phase contained in the cell. The organic phase reference solution (a 2 mM BTPPACI+2 mM NaCl aqueous solution) was mechanically stabilized The aqueous supporting electrolyte solution was a Tris-HCl buffer 10 mM pH 7.0.

Data set [3] is described as follows: GO radical scavenging activity (TAC assay). It is filed as biochemical. Conditions: ethanol, absorbance 428 nm.
From the text: as §1, §2
In an embodiment, the GO′ scavenging activity was evaluated as follows: solutions of test compounds with concentrations from 5 μM to 75 μM were prepared in ethanol. An ethanolic solution of 5 mM GO′ was prepared and diluted to reach the absorbance of 1.00±0.02 at 428 nm. The addition (20 μL) in triplicate of compound solution to GO. solution (180 μL) was followed by absorbance measurement at 428 nm over 30 minutes, in the dark, at room temperature. […] Dose-response curves were established for the determination of IC50 values. Data are means±SEM of three independent experiments.

Data set [4] can be described thus: Redox properties by differential pulse and cyclic voltammetry. The class given is physicochemical. On the procedure:
In an embodiment, and as an example, AntiOxCINs redox properties were evaluated (Table 1). Redox potentials are correlated with the ability of an antioxidant to donate a hydrogen atom and/or an electron to a free radical.
However, for pyrogallol derivatives (AntiOxCIN4, AntiOxCIN5 and AntiOxCIN7), a significant decrease in redox potentials was observed (Ep=0.034-0.057 V) (Table 1).
The voltammograms presented a diffusion peak and an adsorption post-peak at a more anodic potential correspondent to the oxidation of dissolved and adsorbed forms of the compounds, respectively. The oxidation waves can be related to the oxidation process of the pyrogallol moiety. The cyclic voltammograms also show the presence of two overlapped anodic peaks. The anodic peaks appeared to correspond to irreversible processes as any distinct reduction wave was not seen on the cathodic sweep. The existence of the additional phenolic group in the pyrogallol systems, when compared with the catechol ones, seems to influence the stabilization of the semiquinone intermediate and in turn the oxidative mechanism.
as §3, §4

Data set [5] can be described thus: DPPH radical scavenging activity (TAC assay). The class given is biochemical. Conditions: ethanol, absorbance 515 nm.
From the text: as §1, §2
In an embodiment, the DPPH. radical scavenging activity was performed as follows: solutions of the test compounds with increasing concentrations (range between 0 μM and 500 μM) were prepared in ethanol. A DPPH′ ethanolic solution (6.85 mM) was also prepared and then diluted to reach the absorbance of 0.72±0.02 at 515 nm. Each compound solution (20 μL) was added to 180 μL of DPPH′ solution in triplicate, and the absorbance at 515 nm was recorded minutely over 45 minutes. […] Dose-response curves were established for the determination of IC50 values. Data are means±SEM of three independent experiments.
A general note: Loss of DPPH colour is used to gauge radical scavenging.

Data set [6] deals with mouse myoblast C2C12 cells. The settings on record: cited from earlier work.

As a reminder, the pIC50 is the negative decadic logarithm of the IC50, by convention in mol/L. Read a high pIC50 as a small IC50.

pIC50: −log10 of the molar value. Marks after values point to notes of the source that are not given here.

Consider `CS(=O)(=O)[O-].O=C(/C=C/c1ccc(O)c(O)c1)NCC[P+](c1ccccc1)(c1ccccc1)c1ccccc1` [AntiOxCIN1, reference compound], for which the pIC50 in data set [1] was 4.48; in data set [3], 5.35; in data set [5], 4.45. In addition, the “Etr (transfer potential)” value in data set [2] was determined as 0.572 V. Besides, the “reversibility of the oxidation reaction” value in data set [4] (cyclic voltammetry, physiological pH) is given as “reversible reaction”. Also, in data set [4] (physiological pH (7.4), voltammetry, listed as AntiOxClN1), the “Ep (redox potential)” value is 0.166^a) V. For the same compound, the “protection against oxidative stress stressors (H2O2, linoleic acid-hydroperoxides)” value in data set [6] is “protected”.

(Values after patent publication US10913757B2, “Hydroxycinnamic derivatives, methods and uses thereof” (UNIVERSIDADE DO PORTO, priority 2016, dated 2021).)
